Square brackets hold non-standard residues; d marks the D form. Primed or numbered codes have the meaning given here. Side chains are listed from the residue outwards. Ends that are not written are not given here. triazole = not defined here; Hpg′ = not defined here
Tests used:
E. faecium [1] = format: cell-based, Enterococcus faecium; conditions: for decrease in zone of inhibition (activity) on Hpg labeling: 30 μL of 1 mg/mL in 8 mm wells, zone area minus well area, 3 experiments
Protocol: 2 Production of single-Met containing nisin and nisin variants labeled with Met, Hpg or Hpg–Glc and their antibacterial activity against E. faecium strain. (a) Quantification of fully modified nisin variants labeled with Met or Hpg using HPLC as per Schmitt et al. (b) Evaluation of the antimicrobial efficacy of nisin and its variants against E. faecium through agar well diffusion assay. Each trial was repeated 3 times. The relative activity was determined by measuring inhibition zone diameters in millimeters, calculated as the area of the zone (πr ^2) minus the area of the well (πr ^2) in millimeters.
An overnight culture was added at a concentration of 0.1% (v/v) to molten GM17 agar (for E. faecium and E. faecalis) or LB agar (for S. aureus and B. cereus) at 45 °C, and then 30 mL of this mixture was poured onto a plate. After the agar solidified, wells of 8 mm were created by punching in the agar and filled with 30 μL of a 1 mg/mL lantibiotic solution. If needed, lantibiotics were activated by adding 3 μL of 1 mg/mL NisP directly to the well. The quantity of nisin was determined using HPLC as previously outlined. The agar plate was then incubated at 37 °C overnight, and the zones of inhibition were measured. The presented data results from three independent experiments. Zone diameters were measured in millimeters and recorded as the area of the zone (πr ^2) minus the area of the well (πr ^2) in millimeters.

[2] = test system: various Gram-positive bacteria; conditions: ref citation numbers not given; cited from earlier work
From the text: Recently, we introduced the Met analog Aha at position 17 and used click chemistry to ...

E. faecium [3] = assay: Time-kill assay; format: cell-based, Enterococcus faecium; conditions: 5-fold MIC against E. faecium
Protocol: The antimicrobial effectiveness of nisin, nisin(1–22), and nisin(M21V)–Gal was assessed using a method previously described by Guo et al. , In summary, an overnight culture of E. faecium was diluted 50 times in GM17 medium and cultured at 37 °C. The bacteria were grown until reaching an optical density at 600 nm (OD600) of 0.5, and then the cell concentration was adjusted to 5 × 10^5 colony-forming units per milliliter (CFU/mL). Following this, the bacteria were exposed to a 5-fold MIC of each peptide. An untreated cell suspension was used as a control. At specific time intervals, 50 μL samples were taken, and both undiluted and 10-fold serially diluted suspensions were plated on GM17 agar. The plates were then incubated overnight at 37 °C, and the resulting colonies were counted and expressed as CFU/mL. Each experiment was conducted in triplicate.

[4] = compared to the same peptide labeled with Met

## C#CCC[C@H](NC(=O)[C@@H]1CS[C@@H](C)[C@@H](NC(=O)[C@@H](NC(=O)[C@@H]2CS[C@@H](C)[C@@H](NC(=O)[C@@H]3CSC[C@@H](NC(=O)/C(=C/C)NC(=O)[C@@H](N)[C@@H](C)CC)C(=O)N[C@@H]([C@@H](C)CC)C(=O)NC(=C)C(=O)N[C@@H](CC(C)C)C(=O)N3)C(=O)N[C@@H](C)C(=O)NCC(=O)N2)[C@@H](C)CC)C(=O)NCC(=O)N[C@@H](C(C)C)C(=O)N[C@@H]([C@@H](C)CC)C(=O)N[C@@H]([C@@H](C)CC)C(=O)N/C(=C\C)C(=O)N1)C(=O)N[C@@H]1CSC[C@@H](C(=O)N[C@@H](CCCCN)C(=O)O)NC(=O)CNC(=O)[C@H](CC(N)=O)NC1=O [rombocin(M17I)(Hpg)]
E. faecium [1]; [4]
  decrease in zone of inhibition (activity) on Hpg labeling: 49%

## C#CCC[C@@H]1NC(=O)[C@H]([C@@H](C)CC)NC(=O)[C@H](C(C)C)NC(=O)CNC(=O)[C@H](NC(=O)[C@@H](NC(=O)[C@@H]2CS[C@@H](C)[C@@H](NC(=O)[C@@H]3CSC[C@@H](NC(=O)/C(=C/C)NC(=O)[C@@H](N)[C@@H](C)CC)C(=O)N[C@@H]([C@@H](C)CC)C(=O)NC(=C)C(=O)N[C@@H](CC(C)C)C(=O)N3)C(=O)N[C@@H](C)C(=O)NCC(=O)N2)[C@@H](C)CC)[C@H](C)SC[C@@H](C(=O)N[C@H](C(=O)N[C@@H]2CSC[C@@H](C(=O)N[C@@H](CCCCN)C(=O)O)NC(=O)CNC(=O)[C@H](CC(N)=O)NC2=O)C(C)C)NC(=O)/C(=C/C)NC1=O [rombocin(M20V)(Hpg)]
E. faecium [1]; [4]
  decrease in zone of inhibition (activity) on Hpg labeling: 13%

## M17W: literature nisin mutant with M17W mutation (ITSISLCTPGCKTGALWGCNMKTATCHCSIHVSK; cysteine pairing not given here; also: lantibiotic nisin-A; UniProt P13068 24-57, looked up, variant M17W) [reference compound]
[2]
  influence of M17 mutation on antimicrobial activity: reduced activity

## nisin(1–22): truncated variant of nisin, bacteriostatic control that only binds lipid II (ITSISLCTPGCKTGALMGCNMK; cysteine pairing not given here; also: lantibiotic nisin-A; UniProt P13068 24-45, looked up, fragment) [reference compound]
E. faecium [3]
  bacteriostatic or bactericidal nature: bacteriostatic effect

## nisin(M17I): single-Met nisin mutant M17I, labeled with Met (ITSISLCTPGCKTGALIGCNMKTATCHCSIHVSK; not fully specified (some residues, bridges); cysteine pairing not given here; also: lantibiotic nisin-A, labeled with Met; UniProt P13068 24-57, looked up, variant M17I)
[2]
  influence of M17 mutation on antimicrobial activity: reduced activity

## nisin(M17I)–Glc (ITSISLCTPGCKTGALIGCN[Hpg′]([triazole-2‑deoxy‑D‑glucose])KTATCHCSIHVSK; not fully specified (some residues, bridges); reading uncertain; also: nisin-A lantibiotic thioether rings and dehydro residues, not placed; UniProt P13068 24-57, looked up, variant M17I)
E. faecium [1]; compared to the Hpg-labeled peptide, agar well diffusion
  decrease of activity after glucose attachment: 15%
E. faecium [1]; compared to the same peptide labeled with Met, agar well diffusion
  decrease of activity of the glucose conjugate: 41%

## nisin(M21V): single-Met nisin mutant M21V, labeled with Met (ITSISLCTPGCKTGALMGCNVKTATCHCSIHVSK; not fully specified (some residues, bridges); cysteine pairing not given here; also: lantibiotic nisin-A, labeled with Met; UniProt P13068 24-57, looked up, variant M21V)
E. faecium [1]; agar well diffusion, 30 μL of 1 mg/mL
  antibacterial activity in words: highest antibacterial activity
